The source made the active and inactive calls.
How the values were obtained:
P388/ADR = experiment: cells; assay type: functional; details: Mus musculus
SN12K1 = experiment: cells; assay type: functional; details: Homo sapiens
P388 = experiment: cells; assay type: functional; details: Mus musculus
BJ [1] = experiment: BJ-TERT fibroblast viability loss – cell-based, RAS-independent, luminescence, dose response (AID 1933); assay type: functional; details: Homo sapiens
BJ [2] = experiment: cells; assay type: functional, cell-based; details: Homo sapiens
BJ [3] = experiment: BJ-TERT-LT-ST fibroblast viability loss – cell-based, RAS-independent, luminescence, dose response (AID 1935); assay type: functional; details: Homo sapiens;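 further: BJ fibroblasts immortalized with TERT plus LT and ST oncogenes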
[4] = DRD fibroblast viability loss – cell-based, non-viral oncogenic, luminescence, dose response (AID 1934); assay type: functional; details: Homo sapiens
[5] = HEK-293T viability loss after treatment – luminescence, T-cell screen hits, cytotoxicity control for TCR NF-kB inhibitor project, dose response (AID 489026); assay type: functional, cell-based;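 further: cells exposed to compound about 14 hours before the viability readout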
Cytochrome P450 2C9 = Cytochrome P450 2C9 (Homo sapiens, UniProt P11712)
Sequence of Cytochrome P450 2C9 (P11712 whole entry): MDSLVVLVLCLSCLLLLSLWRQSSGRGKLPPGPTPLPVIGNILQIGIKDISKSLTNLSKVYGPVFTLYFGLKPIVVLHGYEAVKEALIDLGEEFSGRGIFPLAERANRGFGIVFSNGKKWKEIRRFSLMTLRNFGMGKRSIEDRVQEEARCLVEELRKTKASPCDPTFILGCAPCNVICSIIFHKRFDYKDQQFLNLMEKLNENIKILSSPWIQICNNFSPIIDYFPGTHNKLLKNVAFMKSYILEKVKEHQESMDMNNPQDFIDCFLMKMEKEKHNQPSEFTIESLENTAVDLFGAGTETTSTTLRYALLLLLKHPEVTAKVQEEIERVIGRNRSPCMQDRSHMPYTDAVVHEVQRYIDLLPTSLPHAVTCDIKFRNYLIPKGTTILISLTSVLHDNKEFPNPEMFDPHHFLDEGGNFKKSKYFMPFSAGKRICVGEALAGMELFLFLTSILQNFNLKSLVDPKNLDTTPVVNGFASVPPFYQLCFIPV

[6] = reduced cellular PGC1a acetyl-lysine signal – cell-based, cherry-picked samples, dose response (AID 720514); assay type: functional;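 further: potency may reflect raised or lowered acetylation signal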
Cytochrome P450 2C19 = Cytochrome P450 2C19 (Homo sapiens, UniProt P33261); experiment: Cytochrome panel assay with activity outcomes. Panel member name: p450-cyp2c19 Compounds with AC50 equal or less than 10 uM are considered active; assay type: functional
Sequence of Cytochrome P450 2C19 (P33261 whole entry): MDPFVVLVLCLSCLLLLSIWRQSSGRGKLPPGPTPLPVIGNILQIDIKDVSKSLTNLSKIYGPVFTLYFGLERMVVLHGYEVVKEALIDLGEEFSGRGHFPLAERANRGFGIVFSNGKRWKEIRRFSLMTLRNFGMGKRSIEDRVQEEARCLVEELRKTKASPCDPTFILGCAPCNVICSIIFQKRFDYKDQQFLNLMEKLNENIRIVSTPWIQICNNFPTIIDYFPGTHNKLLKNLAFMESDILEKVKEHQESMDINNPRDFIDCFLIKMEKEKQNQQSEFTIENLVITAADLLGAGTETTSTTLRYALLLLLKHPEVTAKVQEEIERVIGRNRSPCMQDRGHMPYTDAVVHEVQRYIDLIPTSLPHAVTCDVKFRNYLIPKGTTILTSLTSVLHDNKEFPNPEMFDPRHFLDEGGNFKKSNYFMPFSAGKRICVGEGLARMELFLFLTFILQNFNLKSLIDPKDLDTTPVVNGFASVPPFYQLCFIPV

Cytochrome P450 2D6 = Cytochrome P450 2D6 (Homo sapiens, UniProt P10635);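 further: CYP2D6 member of a cytochrome P450 panel assay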
Sequence of Cytochrome P450 2D6 (P10635 whole entry): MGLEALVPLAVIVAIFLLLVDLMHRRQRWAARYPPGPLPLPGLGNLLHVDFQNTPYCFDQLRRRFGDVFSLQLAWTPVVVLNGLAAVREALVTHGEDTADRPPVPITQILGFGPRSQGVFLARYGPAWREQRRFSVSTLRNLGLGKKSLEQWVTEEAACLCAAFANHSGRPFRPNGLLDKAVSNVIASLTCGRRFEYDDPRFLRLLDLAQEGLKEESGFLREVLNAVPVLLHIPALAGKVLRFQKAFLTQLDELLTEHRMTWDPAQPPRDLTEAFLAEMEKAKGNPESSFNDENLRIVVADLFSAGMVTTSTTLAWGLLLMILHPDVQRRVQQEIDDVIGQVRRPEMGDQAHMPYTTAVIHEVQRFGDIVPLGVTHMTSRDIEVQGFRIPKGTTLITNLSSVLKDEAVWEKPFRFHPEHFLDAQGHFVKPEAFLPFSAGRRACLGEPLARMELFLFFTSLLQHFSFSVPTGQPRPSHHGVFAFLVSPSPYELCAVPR

Cytochrome P450 3A4 = Cytochrome P450 3A4 (Homo sapiens, UniProt P08684);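 further: CYP3A4 tested as one member of a cytochrome P450 panel screen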
Sequence of Cytochrome P450 3A4 (P08684 whole entry): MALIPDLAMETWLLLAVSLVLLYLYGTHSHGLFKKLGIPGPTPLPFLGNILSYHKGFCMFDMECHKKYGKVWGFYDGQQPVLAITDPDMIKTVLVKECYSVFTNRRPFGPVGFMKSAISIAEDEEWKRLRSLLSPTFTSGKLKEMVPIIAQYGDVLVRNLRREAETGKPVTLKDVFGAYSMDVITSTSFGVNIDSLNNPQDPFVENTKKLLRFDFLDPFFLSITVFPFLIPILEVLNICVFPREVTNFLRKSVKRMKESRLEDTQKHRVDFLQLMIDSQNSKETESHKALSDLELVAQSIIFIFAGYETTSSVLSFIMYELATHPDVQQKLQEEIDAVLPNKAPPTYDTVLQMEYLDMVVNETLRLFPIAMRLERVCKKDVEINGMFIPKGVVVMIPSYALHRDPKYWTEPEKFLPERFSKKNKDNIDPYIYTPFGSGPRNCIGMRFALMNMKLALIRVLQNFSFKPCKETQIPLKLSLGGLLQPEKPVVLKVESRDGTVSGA

Cytochrome P450 1A2 = biological target: T1, Cytochrome P450 1A2 (Homo sapiens, UniProt P05177);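 further: PubChem cytochrome P450 panel assay, CYP1A2 panel member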
T1 sequence (P05177 whole entry): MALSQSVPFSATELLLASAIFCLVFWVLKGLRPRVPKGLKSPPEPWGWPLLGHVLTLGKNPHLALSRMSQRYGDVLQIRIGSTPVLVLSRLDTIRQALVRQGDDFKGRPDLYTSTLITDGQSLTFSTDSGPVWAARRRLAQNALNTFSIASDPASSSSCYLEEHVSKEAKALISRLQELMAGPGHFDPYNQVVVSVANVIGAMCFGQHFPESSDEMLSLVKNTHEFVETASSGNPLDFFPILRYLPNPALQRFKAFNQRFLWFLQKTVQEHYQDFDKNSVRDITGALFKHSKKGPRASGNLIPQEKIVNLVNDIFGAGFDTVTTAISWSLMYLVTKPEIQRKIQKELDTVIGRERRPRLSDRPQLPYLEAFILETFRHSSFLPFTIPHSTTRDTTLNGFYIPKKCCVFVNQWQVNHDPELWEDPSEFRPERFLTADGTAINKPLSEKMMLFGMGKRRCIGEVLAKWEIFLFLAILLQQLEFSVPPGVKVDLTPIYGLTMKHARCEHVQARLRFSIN

[7] = biological target: T2, High affinity choline transporter 1 (Homo sapiens, UniProt Q9GZV3); experiment: human choline transporter blockers, potency – cell-based, 5-point CRC, membrane potential dye, dose response (AID 504840); assay type: functional
T2 sequence (Q9GZV3 whole entry): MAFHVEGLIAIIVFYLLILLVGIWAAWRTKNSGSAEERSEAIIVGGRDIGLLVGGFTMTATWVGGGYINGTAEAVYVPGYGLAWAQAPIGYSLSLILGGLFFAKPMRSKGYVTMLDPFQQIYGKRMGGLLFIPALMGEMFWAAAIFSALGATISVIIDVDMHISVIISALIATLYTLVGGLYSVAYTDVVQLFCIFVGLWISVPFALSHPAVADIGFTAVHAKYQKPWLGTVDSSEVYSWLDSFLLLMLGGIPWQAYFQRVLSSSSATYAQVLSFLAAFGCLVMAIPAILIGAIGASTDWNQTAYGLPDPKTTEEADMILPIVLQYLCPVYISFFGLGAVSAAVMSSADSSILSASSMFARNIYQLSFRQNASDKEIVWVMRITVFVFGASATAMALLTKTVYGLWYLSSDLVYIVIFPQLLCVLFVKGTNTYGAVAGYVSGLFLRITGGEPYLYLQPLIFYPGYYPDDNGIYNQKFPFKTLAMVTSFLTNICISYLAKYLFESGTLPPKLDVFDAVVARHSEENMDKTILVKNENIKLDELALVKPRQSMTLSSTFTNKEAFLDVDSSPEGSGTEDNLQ

[8] = viability of PTEN-deleted HCT116 cells – cell-based, HCT116 PTEN knockout, dose response (AID 1047); assay type: functional;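 further: HCT116 colon tumor cells with PTEN knocked out; cells exposed to compound for 60 hours before readout; potency for loss of cell viability measured by luminescence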
[9] = viability of HCT116 lacking mutant beta-catenin – cell-based, human colon tumor, dose response (AID 1045); assay type: functional;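 further: HCT116 colon tumor cells with beta catenin knocked out; cells exposed to compound for 60 hours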
[10] = biological target: T3, Replicative DNA helicase DnaB (Mycobacterium tuberculosis, UniProt P9WMR3); experiment: DnaB intein splicing inhibitors, dose response, biochemical, cell-free fluorescence (AID 449749); assay type: functional
T3 sequence (P9WMR3 whole entry): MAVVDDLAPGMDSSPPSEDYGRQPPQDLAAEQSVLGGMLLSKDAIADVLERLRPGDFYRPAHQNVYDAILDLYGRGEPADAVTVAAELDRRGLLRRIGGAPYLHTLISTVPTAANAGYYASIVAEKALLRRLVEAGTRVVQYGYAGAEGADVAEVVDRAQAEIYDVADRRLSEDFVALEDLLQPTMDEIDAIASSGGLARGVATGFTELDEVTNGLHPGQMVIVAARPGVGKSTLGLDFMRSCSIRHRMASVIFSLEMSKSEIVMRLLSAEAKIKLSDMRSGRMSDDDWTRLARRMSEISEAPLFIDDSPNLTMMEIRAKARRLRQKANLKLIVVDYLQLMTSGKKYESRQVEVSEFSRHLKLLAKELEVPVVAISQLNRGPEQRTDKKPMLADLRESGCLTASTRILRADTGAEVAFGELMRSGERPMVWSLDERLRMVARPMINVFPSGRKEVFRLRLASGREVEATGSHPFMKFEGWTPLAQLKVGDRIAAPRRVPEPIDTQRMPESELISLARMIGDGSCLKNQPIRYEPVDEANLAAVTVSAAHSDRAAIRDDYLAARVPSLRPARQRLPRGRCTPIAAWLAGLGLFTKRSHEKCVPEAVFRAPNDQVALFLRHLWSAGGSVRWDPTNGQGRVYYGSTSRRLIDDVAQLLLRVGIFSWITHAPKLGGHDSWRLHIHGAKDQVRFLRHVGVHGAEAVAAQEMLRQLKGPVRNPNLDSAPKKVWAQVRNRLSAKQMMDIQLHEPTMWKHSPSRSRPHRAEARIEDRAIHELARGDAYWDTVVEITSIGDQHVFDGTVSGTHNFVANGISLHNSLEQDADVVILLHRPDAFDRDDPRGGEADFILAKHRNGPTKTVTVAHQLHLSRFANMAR

Protein RecA = biological target: T4, Protein RecA (Mycobacterium tuberculosis, UniProt P9WHJ3); experiment: Fluorescence Cell-Free Homogeneous Dose Retest to Identify Inhibitors of RecA-Intein Splicing Activity. [Related pubchem assays (depositor defined):AID2097, AID2223, AID489010, AID492950]; assay type: functional
T4 sequence (P9WHJ3 whole entry): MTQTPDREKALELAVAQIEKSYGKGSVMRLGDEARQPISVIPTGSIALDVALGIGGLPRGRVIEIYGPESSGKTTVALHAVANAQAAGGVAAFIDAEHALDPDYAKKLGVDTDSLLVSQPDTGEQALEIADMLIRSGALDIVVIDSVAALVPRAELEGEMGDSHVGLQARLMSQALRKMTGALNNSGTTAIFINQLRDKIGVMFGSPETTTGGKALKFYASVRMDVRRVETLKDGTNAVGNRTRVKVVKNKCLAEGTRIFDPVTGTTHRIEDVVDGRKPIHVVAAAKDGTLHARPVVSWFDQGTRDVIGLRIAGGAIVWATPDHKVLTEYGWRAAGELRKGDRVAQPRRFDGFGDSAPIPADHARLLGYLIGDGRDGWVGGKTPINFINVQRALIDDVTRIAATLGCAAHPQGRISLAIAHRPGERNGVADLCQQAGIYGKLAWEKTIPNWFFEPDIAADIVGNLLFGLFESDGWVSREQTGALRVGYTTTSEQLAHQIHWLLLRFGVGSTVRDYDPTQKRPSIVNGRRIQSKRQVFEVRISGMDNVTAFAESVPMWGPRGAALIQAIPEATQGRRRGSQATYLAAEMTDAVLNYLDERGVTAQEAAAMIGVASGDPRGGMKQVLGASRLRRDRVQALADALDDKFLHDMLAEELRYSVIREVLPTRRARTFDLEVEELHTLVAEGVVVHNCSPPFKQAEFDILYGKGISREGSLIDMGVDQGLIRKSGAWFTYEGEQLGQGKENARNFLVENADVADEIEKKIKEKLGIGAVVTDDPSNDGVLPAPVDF

[11] = blockers of HIV-1 envelope-mediated cell-cell fusion – cherry-pick, dose response (AID 652057); assay type: functional, cell-based
[12] = blockers of HIV-1 ZM109 envelope-driven cell-cell fusion – HeLa effector, CEM target cells, luciferase, cherry-pick, dose response (AID 652058); assay type: functional, cell-based;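 further: luciferase signal from HIV-1 Env mediated cell-cell fusion of effector and target cells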
[13] = HIV-1 AD8 envelope cell-cell fusion blockers – cherry-pick, dose response (AID 652062); assay type: functional, cell-based;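 further: luciferase signal from cell-cell fusion driven by HIV-1 clade B AD8 Env; potency is for inhibitors of fusion seen as a drop in luminescence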

In the case of `O=NN(CCF)C(=O)NC1CCSCC1`, the GI50 (P388/ADR) is reported as > 100 µM (inactive), the GI50 (SN12K1) is reported as > 100 µM (inactive) and the GI50 (P388) is reported as > 100 µM (inactive).
With `Cc1ccc(C(=O)c2cc([N+](=O)[O-])ccc2N2CCOCC2)cc1C` the EC50 (BJ [1]) was 3.06 µM (active), the EC50 (BJ [2]) was 73.8 µM (inconclusive) and the EC50 (BJ [3]) was 1.75 µM (active). The EC50 [4] was 1.6 µM (inconclusive) and the IC50 [5] was > 80 µM (inactive).
In the case of `CSc1ccccc1N1CCN(C(=O)Nc2ccc3c(c2)NC(=O)CO3)CC1`, the AC50 (Cytochrome P450 2C9) is reported as “inconclusive”.
For `Cc1ccc(C2CC2c2nnc(S)n2-c2ccc(Cl)cc2)cc1` (configuration not stated), the AC50 [6] was 37.2 µM (active).
For `C[C@@H](COc1ccc(/C=C\c2ccccc2)cc1)[N+](C)(C)C`, the AC50 (Cytochrome P450 2C19) was “inconclusive”, the AC50 (Cytochrome P450 2D6) was 3.16 µM (inconclusive) and the AC50 (Cytochrome P450 3A4) was 10 µM (inconclusive). For the same molecule, the AC50 (Cytochrome P450 2C9) was “inconclusive”.
For `COCCNC(=O)c1cc(-c2cccc(OC)c2)on1`, the AC50 (Cytochrome P450 2C19; read-out: AC50) was 28.2 µM (inconclusive) and the AC50 (Cytochrome P450 2C9) was “inconclusive”.
In the case of `CCOc1cc(C#N)c(NC(=O)c2cccnc2)cc1OCC`, the IC50 [5] is reported as > 80 µM (inactive) and the AC50 (Cytochrome P450 2C9) is reported as “inconclusive”.
With `COc1ccc(C2=NOC(C(=O)NCc3ccco3)C2)cc1OC` (configuration not stated) the AC50 (Cytochrome P450 2C19) was “inconclusive”, the AC50 (Cytochrome P450 1A2) was 39.8 µM (inconclusive) and the AC50 (Cytochrome P450 2C9) was “inconclusive”.
In the case of `O=C(NNC(=S)Nc1ccccc1)c1cc(Br)ccc1Cl`, the IC50 [7] is reported as 12.6 µM (active).
For `CCc1ccccc1NC(=O)c1nnn(CC(=O)Nc2ccccc2C)c1N`, the AC50 (Cytochrome P450 3A4) was 25.1 µM (inconclusive) and the AC50 (Cytochrome P450 2C9) was “inconclusive”.
In the case of `O=C(O)/C(=C\c1ccccc1OC(F)F)Sc1nnc(-c2ccc(F)cc2)o1`, the IC50 [7] is reported as 19.1 µM (active).
With `Cc1ccc2c(c1)N(CCC(=O)N1CCC3(CC1)OCCO3)C(=O)C(C)O2` (configuration not stated) the AC50 (Cytochrome P450 1A2) was 0.00631 µM (inconclusive) and the AC50 (Cytochrome P450 2C9) was “inconclusive”.
For `Cc1ccc(Cn2ncc(Cl)c(Cl)c2=O)cc1`, the EC50 [8] was 10.5 µM (active), the EC50 [9] was 7.68 µM (active) and the AC50 [10] was 14.3 µM (active). The EC50 (Protein RecA) was 7.65 µM (active) and the AC50 [6] was 8.4 µM (active).
With `COc1nc(O)c(N)c(NC2OC(CO)C(O)C(O)C2O)n1` (configuration not stated) the GI50 (P388/ADR) was 38.5 µM (inactive), the GI50 (SN12K1) was > 100 µM (inactive) and the GI50 (P388) was 13.3 µM (inactive).
In the case of `CCCCSCC(NC(=O)/C=C/c1c(C)[nH]c(=O)[nH]c1=O)C(=O)OC` (configuration not stated), the GI50 (P388/ADR) is reported as 141 µM (inactive), the GI50 (SN12K1) is reported as 17.6 µM (inactive) and the GI50 (P388) is reported as 55.2 µM (inactive).
In the case of `COc1cccc2c1C(=O)c1c(O)c3c(c(O)c1C2=O)C[C@@](O)(C(=O)CO)C[C@@H]3OC1CC(N)CC(C)O1` (some centres not stated), the GI50 (P388/ADR) is reported as 0.367 µM (active), the GI50 (SN12K1) is reported as 0.02 µM (active) and the GI50 (P388) is reported as 0.0349 µM (active).
With `CC1(C)CC23C4COC(=O)C2CCC1C3CC4=O` (configuration not stated) the GI50 (P388/ADR) was 1.5 µM (inactive), the GI50 (SN12K1) was 14.4 µM (inactive) and the GI50 (P388) was 2.9 µM (inactive).
For `COc1cc(/C=C/C(=O)Oc2ccc(NC(C)=O)cc2)ccc1C(=O)OCc1ccccc1`, the GI50 (P388/ADR) was 0.69 µM (active), the GI50 (SN12K1) was 36.5 µM (inactive) and the GI50 (P388) was 2.28 µM (inactive).
With `O=Cc1c(Br)[nH]c2ccccc12` the GI50 (P388/ADR) was 68.9 µM (inactive), the GI50 (SN12K1) was > 100 µM (inactive) and the GI50 (P388) was > 55.5 µM (inactive).
For `O=C(C[C@H]1C[C@@H]2c3cc(NS(=O)(=O)c4ccc(F)cc4)ccc3O[C@@H]2[C@H](CO)O1)NCCc1ccccc1`, the AC50 [11] was 0.666 µM (active), the AC50 [12] was 1.2 µM (active) and the AC50 [13] was 8.44 µM (active).
With `COc1ccc(NC(=O)Nc2ccc3c(c2)CC(=O)N([C@H](C)CO)C[C@H](C)[C@H](CN(C)S(=O)(=O)c2ccccc2)O3)cc1` the AC50 [11] was < 0.26 µM (active), the AC50 [12] was < 0.26 µM (active) and the AC50 [13] was 0.981 µM (active).
In the case of `C[C@H]1CCCCO[C@H](CN(C)Cc2ccc3c(c2)OCO3)[C@@H](C)CN([C@@H](C)CO)C(=O)c2cc(NC(=O)Nc3ccc(C(F)(F)F)cc3)ccc2O1`, the AC50 [6] is reported as 12.1 µM (active).

From ChEMBL document CHEMBL1201862, “PubChem BioAssay data set” (2004)
